Test results: patent US20040248848A1, “Use of specific dose of fondaparinux sodium for the treatment of acs” (priority 2004, published 2004)

Columns and labels:
[1] = test system: patients with unstable angina/non Q-wave MI; assay: Dose ranging study: safety analysis, adjudicated bleeding events; assay type: in vivo; details: for Any bleeding event n (%) / Major bleeding event n (%) / Minor bleeding event n (%): first active injection to Day 9, all treated patients
Experimental: (§1) A double blind, randomized, controlled dose ranging study was performed testing in parallel four fondaparinux sodium daily dose levels (2.5, 4.0, 8.0 and 12.0 mg) and a dose regimen of enoxaparin (1 mg/Kg bid=twice daily). Efficacy (composite parameter of death, AMI, recurrent ischemia) and safety of the respective doses of fondaparinux sodium were assessed in patients with unstable angina/non Q-wave MI. Further, safety and efficacy of the four different dose levels of fondaparinux sodium and enoxaparin 1 mg/Kg bid were compared.
The primary safety endpoint was the incidence of major bleeding from first active drug administration up to and including Day 9 as adjudicated by a blinded Central Adjudication Committee (CAC). The incidence of any major or minor bleeding was considered as a secondary safety endpoint.
(§2) The safety analysis was performed on the ‘all treated patients’ (ATP) population.

[2] = test system: patients with unstable angina/non Q-wave MI; assay: Dose ranging study: safety analysis, deaths; assay type: in vivo, human; details: for Patients with SAE from First injection Leading to death after day 30 / Patients with SAE from First injection Leading to death between first injection and day 30 / Total deaths reported: all treated patients; for Total deaths reported: first active injection onwards
Experimental: as §1
Other safety endpoints include deaths and all adverse events (latter not reported here).
as §2

[3] = test system: patients with unstable angina/non Q-wave MI; assay: Dose ranging study in unstable angina: primary efficacy evaluation (composite of death, AMI, recurrent ischemia); assay type: in vivo, human; details: for AMI n (%) / Composite endpoint n (%) / Death (not related to bleeding) n (%) / Recurrent ischemia n (%) (Mortara data) / Symptomatic recurrent ischemia n (%): first active injection to Day 9, per protocol excluding insufficient Mortara data
Experimental: as §1
The primary efficacy endpoint consisted of the composite of the following ischeric events starting from first active drug administration up to and including Day 9 (with Day 1 being the day of first active drug administration):
Death from any cause except for death related to bleeding
Acute myocardial infarction (AMI), according to the definition in the protocol
Symptomatic recurrent ischemia (excluding episodes of ischemia during or at any time after CABG (Coronary Artery Bypass Graft) or PTCA (Percutaneous Transluminal Coronary Angioplasty)) or any ischemia on the 48-h continuous 12-lead ECG monitoring (Mortara).
In the event a patient experienced one of these events, the binary composite outcome was regarded as a treatment failure. In contrast, if none of the above events applied, the composite ischemic outcome was considered as a treatment success.
(§3) The primary analysis for efficacy parameters was performed on the per protocol (PP) population. The choice of the patients to be excluded from PP population for efficacy analyses was defined before unblinding the trial.

[4] = test system: patients with unstable angina/non Q-wave MI; assay: Dose ranging study: secondary efficacy analysis (clinical endpoints); assay type: in vivo, human; details: for AMI / Death (not related to bleeding) / Death or AMI / Death or AMI or recurrent ischemia (Symptomatic) / Recurrent Ischemia (Symptomatic): first active injection to Day 9, per protocol including insufficient Mortara data
Experimental: as §1, §3

SMILES: CO[C@H]1O[C@H](COS(=O)(=O)O)[C@@H](O[C@@H]2O[C@@H](C(=O)O)[C@@H](O[C@H]3O[C@H](COS(=O)(=O)O)[C@@H](O[C@@H]4O[C@H](C(=O)O)[C@@H](O[C@H]5O[C@H](COS(=O)(=O)O)[C@@H](O)[C@H](O)[C@H]5NS(=O)(=O)O)[C@H](O)[C@H]4O)[C@H](OS(=O)(=O)O)[C@H]3NS(=O)(=O)O)[C@H](O)[C@H]2OS(=O)(=O)O)[C@H](O)[C@H]1NS(=O)(=O)O [Fondaparinux sodium, methyl O-(2-deoxy-2-sulfoamino-6-O-sulfo-α-D-glucopyranosyl)-(1→4)-O-(β-D-glucopyranosyluronic acid)-(1→4)-O-(2-deoxy-2-sulfoamino-3,6-di-O-sulfo-α-D-glucopyranosyl)-(1→4)-O-(2-O-sulfo-α-L-idopyranosyluronic acid)-(1→4)-2-deoxy-2-sulfoamino-6-O-sulfo-α-D-glucopyranoside]
- Any bleeding event n (%) ([1]; 2.5 mg daily (N = 229)): 9 (3.9%) n (%)
- Major bleeding event n (%) ([1]; 2.5 mg daily (N = 229)): 0 (0.0%) n (%)
- Minor bleeding event n (%) ([1]; 2.5 mg daily (N = 229)): 9 (3.9%) n (%)
- major bleedings observed ([1]; 2.5 mg group): No major bleedings were observed
- Any bleeding event n (%) ([1]; 4 mg daily (N = 222)): 12 (5.4%) n (%)
- Major bleeding event n (%) ([1]; 4 mg daily (N = 222)): 3 (1.4%) n (%)
- Minor bleeding event n (%) ([1]; 4 mg daily (N = 222)): 9 (4.1%) n (%)
- Any bleeding event n (%) ([1]; 8 mg daily (N = 223)): 12 (5.4%) n (%)
- Major bleeding event n (%) ([1]; 8 mg daily (N = 223)): 4 (1.8%) n (%)
- Minor bleeding event n (%) ([1]; 8 mg daily (N = 223)): 9 (4.0%) n (%)
- Any bleeding event n (%) ([1]; 12 mg daily (N = 238)): 11 (4.6%) n (%)
- Major bleeding event n (%) ([1]; 12 mg daily (N = 238)): 1 (0.4%) n (%)
- Minor bleeding event n (%) ([1]; 12 mg daily (N = 238)): 10 (4.2%) n (%)
- differences between fondaparinux sodium groups and the enoxaparin group for safety parameters ([1]; all dose groups): No significant differences
- differences between treatment groups for major, minor or any bleeding ([1]; all dose groups vs enoxaparin): No relevant differences
- Patients with SAE from First injection Leading to death after day 30 ([2]; 2.5 mg daily (N = 229)): 1 (0.4%) Number (%)
- Patients with SAE from First injection Leading to death between first injection and day 30 ([2]; 2.5 mg daily (N = 229)): 3 (1.3%) Number (%)
- Total deaths reported ([2]; 2.5 mg daily (N = 229)): 4 (1.7%) Number (%)
- Patients with SAE from First injection Leading to death after day 30 ([2]; 4 mg daily (N = 222)): 3 (1.4%) Number (%)
- Patients with SAE from First injection Leading to death between first injection and day 30 ([2]; 4 mg daily (N = 222)): 7 (3.2%) Number (%)
- Total deaths reported ([2]; 4 mg daily (N = 222)): 10 (4.5%) Number (%)
- Patients with SAE from First injection Leading to death after day 30 ([2]; 8 mg daily (N = 223)): 2 (0.9%) Number (%)
- Patients with SAE from First injection Leading to death between first injection and day 30 ([2]; 8 mg daily (N = 223)): 4 (1.8%) Number (%)
- Total deaths reported ([2]; 8 mg daily (N = 223)): 6 (2.7%) Number (%)
- Patients with SAE from First injection Leading to death after day 30 ([2]; 12 mg daily (N = 238)): 1 (0.4%) Number (%)
- Patients with SAE from First injection Leading to death between first injection and day 30 ([2]; 12 mg daily (N = 238)): 6 (2.5%) Number (%)
- Total deaths reported ([2]; 12 mg daily (N = 238)): 7 (2.9%) Number (%)
- differences in the percentage of deaths between treatment groups ([2]; all dose groups vs enoxaparin): No relevant differences
- AMI n (%) ([3]; 2.5 mg daily (N = 203)): 1 (0.5%) n (%)
- Composite endpoint n (%) ([3]; 2.5 mg daily (N = 203)): 61 (30.0%) n (%)
- Death (not related to bleeding) n (%) ([3]; 2.5 mg daily (N = 203)): 2 (1.0%) n (%)
- Recurrent ischemia n (%) (Mortara data) ([3]; 2.5 mg daily (N = 203)): 47 (23.2%) n (%)
- Symptomatic recurrent ischemia n (%) ([3]; 2.5 mg daily (N = 203)): 26 (12.8%) n (%)
- AMI n (%) ([3]; 4 mg daily (N = 177)): 3 (1.7%) n (%)
- Composite endpoint n (%) ([3]; 4 mg daily (N = 177)): 77 (43.5%) n (%)
- Death (not related to bleeding) n (%) ([3]; 4 mg daily (N = 177)): 5 (2.8%) n (%)
- Recurrent ischemia n (%) (Mortara data) ([3]; 4 mg daily (N = 177)): 63 (35.6%) n (%)
- Symptomatic recurrent ischemia n (%) ([3]; 4 mg daily (N = 177)): 33 (18.6%) n (%)
- AMI n (%) ([3]; 8 mg daily (N = 173)): 5 (2.9%) n (%)
- Composite endpoint n (%) ([3]; 8 mg daily (N = 173)): 71 (41.0%) n (%)
- Death (not related to bleeding) n (%) ([3]; 8 mg daily (N = 173)): 1 (0.6%) n (%)
- Recurrent ischemia n (%) (Mortara data) ([3]; 8 mg daily (N = 173)): 55 (31.8%) n (%)
- Symptomatic recurrent ischemia n (%) ([3]; 8 mg daily (N = 173)): 29 (16.8%) n (%)
- AMI n (%) ([3]; 12 mg daily (N = 187)): 4 (2.1%) n (%)
- Composite endpoint n (%) ([3]; 12 mg daily (N = 187)): 65 (34.8 %) n (%)
- Death (not related to bleeding) n (%) ([3]; 12 mg daily (N = 187)): 1 (0.5%) n (%)
- Recurrent ischemia n (%) (Mortara data) ([3]; 12 mg daily (N = 187)): 56 (29.9%) n (%)
- Symptomatic recurrent ischemia n (%) ([3]; 12 mg daily (N = 187)): 28 (15.0%) n (%)
- AMI n (%) ([3]; All doses pooled (N = 740)): 13 (1.8%) n (%)
- Composite endpoint n (%) ([3]; All doses pooled (N = 740)): 274 (37.0%) n (%)
- Death (not related to bleeding) n (%) ([3]; All doses pooled (N = 740)): 9 (1.2%) n (%)
- Recurrent ischemia n (%) (Mortara data) ([3]; All doses pooled (N = 740)): 221 (29.9%) n (%)
- Symptomatic recurrent ischemia n (%) ([3]; All doses pooled (N = 740)): 116 (15.7%) n (%)
- efficacy compared with enoxaparin 1 mg/Kg bid ([3]; all fondaparinux sodium doses): at least as effective as enoxaparin
- incidence of the composite endpoint ([3]; all fondaparinux sodium groups pooled): 37.0%
- dose-response for the primary endpoint ([3]; four fondaparinux sodium groups (2.5, 4.0, 8.0, 12.0 mg)): No dose-response
- AMI ([4]; 2.5 mg daily (N = 210)): 1 (0.5%) n (%)
- Death (not related to bleeding) ([4]; 2.5 mg daily (N = 210)): 2 (1.0%) n (%)
- Death or AMI ([4]; 2.5 mg daily (N = 210)): 3 (1.4%) n (%)
- Death or AMI or recurrent ischemia (Symptomatic) ([4]; 2.5 mg daily (N = 210)): 27 (12.9%) n (%)
- Recurrent Ischemia (Symptomatic) ([4]; 2.5 mg daily (N = 210)): 26 (12.4%) n (%)
- death or AMI compared with the other fondaparinux sodium groups ([4]; 2.5 mg group): fewer patients tended to experience death or AMI
- AMI ([4]; 4 mg daily (N = 185)): 3 (1.6%) n (%)
- Death (not related to bleeding) ([4]; 4 mg daily (N = 185)): 5 (2.7%) n (%)
- Death or AMI ([4]; 4 mg daily (N = 185)): 8 (4.3%) n (%)
- Death or AMI or recurrent ischemia (Symptomatic) ([4]; 4 mg daily (N = 185)): 39 (21.1%) n (%)
- Recurrent Ischemia (Symptomatic) ([4]; 4 mg daily (N = 185)): 33 (17.8%) n (%)
- AMI ([4]; 8 mg daily (N = 183)): 5 (2.7%) n (%)
- Death (not related to bleeding) ([4]; 8 mg daily (N = 183)): 1 (0.5%) n (%)
- Death or AMI ([4]; 8 mg daily (N = 183)): 6 (3.3%) n (%)
- Death or AMI or recurrent ischemia (Symptomatic) ([4]; 8 mg daily (N = 183)): 33 (18.0%) n (%)
- Recurrent Ischemia (Symptomatic) ([4]; 8 mg daily (N = 183)): 29 (15.8%) n (%)
- AMI ([4]; 12 mg daily (N = 199)): 4 (2.0%) n (%)
- Death (not related to bleeding) ([4]; 12 mg daily (N = 199)): 1 (0.5%) n (%)
- Death or AMI ([4]; 12 mg daily (N = 199)): 5 (2.5%) n (%)
- Death or AMI or recurrent ischemia (Symptomatic) ([4]; 12 mg daily (N = 199)): 30 (15.1%) n (%)
- Recurrent Ischemia (Symptomatic) ([4]; 12 mg daily (N = 199)): 28 (14.1%) n (%)
